Paper PMC2901217, “Flavonoids activate pregnane × receptor-mediated CYP3A4 gene expression by inhibiting cyclin-dependent kinases in HepG2 liver carcinoma cells” (BMC Biochemistry, 2010)
Each block holds one molecule with its values, some of them ahead of it.

Key:
[1] = tested on: PXR-mediated CYP3A4 promoter activity in HepG2 cells stably transfected with PXR and CYP3A4-luc; assay: PXR transactivation assay (CYP3A4-luc luciferase reporter); conditions: 24 h; for PXR activation as % of the activity from 2 μM of rifampicin: compound below 10 μM; for Activation of PXR-mediated CYP3A4 promoter (result in words): screen hit in HepG2 PXR/CYP3A4-luc cells
Procedure: HepG2 cells (2 × 10^4/well) stably transfected with PXR and CYP3A4-luc were seeded in 384-well plates and treated with indicated compounds for 24 h before the luciferase assay. […] Compounds were tested in quadruplicate. The bars denote the standard deviation.
Compounds were added to 384-well plates seeded with cells in a phenol red-free medium containing 5% charcoal/dextran-treated FBS and incubated for 24 h at 37°C before conducting the luciferase assay. The final concentration of DMSO in each well was maintained at 0.1%. DMSO and 2 μM of rifampicin were used as the negative and positive control, respectively. Luciferase activities were detected by using EnVision plate reader (PerkinElmer Life Sciences), as previously reported.

Cdk11 = Cdk11 (Homo sapiens, UniProt Q9BWU1); assay: Cdk kinase profiling assay (Ambit Biosciences); assay type: binding
Procedure: (§1) Since flavonoids have been reported to inhibit multiple Cdks, we investigated the inhibitory effect of flavonoid apigenin on various Cdks. Apigenin inhibited multiple Cdks, including Cdk2, 4, 5, 7, 8, 9 and 11 (Table 1). […] GST was expressed and purified by using pGEX-4T-1 in Escherichia coli BL21 and was used as the negative control. The reaction mixture was incubated at 30°C for 30 min before being electrophoresed by SDS-PAGE. The gel was stained by using SimplyBlue SafeStain (Invitrogen), desiccated by the Labconco gel dryer (Labconco, Kansas City, MO), and exposed overnight to the Storage Phosphor Screen (GE Healthcare). Phosphoimages were obtained by using the Storm scanner (GE Healthcare). In vitro Cdks kinase profiling assays were performed by Ambit Biosciences (San Diego, CA) as previously described.

Cdk2 = Cdk2 (Homo sapiens, UniProt P24941); assay: Cdk kinase profiling assay (Ambit Biosciences); assay type: binding
Procedure: as §1

Cdk3 = Cdk3 (Homo sapiens, UniProt Q00526); assay: Cdk kinase profiling assay (Ambit Biosciences); assay type: binding
Procedure: as §1

Cdk4 = Cdk4 (Homo sapiens, UniProt P11802); assay: Cdk kinase profiling assay (Ambit Biosciences); assay type: binding
Procedure: as §1

Cdk5 = Cdk5 (Homo sapiens, UniProt Q00535); assay: Cdk kinase profiling assay (Ambit Biosciences); assay type: binding
Procedure: as §1

Cdk7 = Cdk7 (Homo sapiens, UniProt P50613); assay: Cdk kinase profiling assay (Ambit Biosciences); assay type: binding
Procedure: as §1

Cdk8 = Cdk8 (Homo sapiens, UniProt P49336); assay: Cdk kinase profiling assay (Ambit Biosciences); assay type: binding
Procedure: as §1

Cdk9 = Cdk9 (Homo sapiens, UniProt P50750); assay: Cdk kinase profiling assay (Ambit Biosciences); assay type: binding
Procedure: as §1

[2] = tested on: Cdk5-mediated inhibition of PXR-mediated CYP3A4 promoter activity in HepG2; assay: Cdk5-mediated inhibition of rifampicin-induced CYP3A4 promoter activity (transient co-transfection, Dual-glo luciferase); assay type: cell-based, human; conditions: p < 0.001
Procedure: Next, we determined the functional correlation between the activities of Cdk5 and PXR. […] A total of 20 μg of combined plasmids was used to transfect 5 × 10^6 cells seeded in a T75 flask 16 h before transfection. Transfected cells were seeded into white 96-well plates (at 10,000 cells/well) 24 h later, and treated with DMSO or compounds as indicated for 24 h before Dual-glo luciferase assay. CYP3A4 promoter activity was normalized by using activity of the CMV-renilla, and expressed as fold induction over control (DMSO; without Cdk5 transfection). […] The significance of the difference between datasets was determined by using the Student's t test.

[3] = target: T1, GST-hPXR ligand-binding domain (Homo sapiens, UniProt O75469)
T1 sequence (O75469 146-433 limits assumed): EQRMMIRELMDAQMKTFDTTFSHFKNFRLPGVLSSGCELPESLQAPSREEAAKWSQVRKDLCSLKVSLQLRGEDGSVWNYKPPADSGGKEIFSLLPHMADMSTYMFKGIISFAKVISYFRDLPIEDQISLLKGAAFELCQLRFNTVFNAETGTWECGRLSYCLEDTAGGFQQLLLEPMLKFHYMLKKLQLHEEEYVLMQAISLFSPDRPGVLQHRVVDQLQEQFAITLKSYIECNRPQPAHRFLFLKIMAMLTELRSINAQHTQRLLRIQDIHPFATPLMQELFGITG
Procedure: The time-resolved fluorescence resonance transfer (TR-FRET) PXR competitive binding assay was performed as described previously [9]. Briefly, the assays were performed in a volume of 20 μl in 384-well solid black plates with 5 nM GST-hPXR ligand-binding domain, 40 nM fluorescent-labeled hPXR agonist (Fluomore PXR Green), 5 nM terbium-labeled anti-GST antibody, and test compound at different concentrations. […] Curves were generated by using GraphPad Prism 4.0 (GraphPad Software, La Jolla, CA).

Chain of Cdk3 (Q00526 whole entry): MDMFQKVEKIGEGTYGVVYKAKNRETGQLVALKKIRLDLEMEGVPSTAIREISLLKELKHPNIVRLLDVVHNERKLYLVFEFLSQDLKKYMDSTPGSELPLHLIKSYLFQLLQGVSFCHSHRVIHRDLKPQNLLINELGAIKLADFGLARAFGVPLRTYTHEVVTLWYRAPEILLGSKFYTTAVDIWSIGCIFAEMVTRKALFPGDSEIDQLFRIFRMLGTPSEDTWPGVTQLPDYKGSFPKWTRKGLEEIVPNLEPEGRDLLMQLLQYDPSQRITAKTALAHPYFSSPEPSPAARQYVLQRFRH
Chain of Cdk4 (P11802 whole entry): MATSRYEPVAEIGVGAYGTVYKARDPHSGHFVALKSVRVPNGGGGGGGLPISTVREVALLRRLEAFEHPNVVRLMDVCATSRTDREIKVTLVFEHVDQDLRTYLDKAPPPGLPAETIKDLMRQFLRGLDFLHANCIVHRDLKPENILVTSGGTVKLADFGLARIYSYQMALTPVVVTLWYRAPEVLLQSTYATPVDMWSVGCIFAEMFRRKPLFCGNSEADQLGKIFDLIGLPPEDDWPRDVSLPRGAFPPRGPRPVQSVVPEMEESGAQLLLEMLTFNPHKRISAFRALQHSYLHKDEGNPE
Chain of Cdk9 (P50750 whole entry): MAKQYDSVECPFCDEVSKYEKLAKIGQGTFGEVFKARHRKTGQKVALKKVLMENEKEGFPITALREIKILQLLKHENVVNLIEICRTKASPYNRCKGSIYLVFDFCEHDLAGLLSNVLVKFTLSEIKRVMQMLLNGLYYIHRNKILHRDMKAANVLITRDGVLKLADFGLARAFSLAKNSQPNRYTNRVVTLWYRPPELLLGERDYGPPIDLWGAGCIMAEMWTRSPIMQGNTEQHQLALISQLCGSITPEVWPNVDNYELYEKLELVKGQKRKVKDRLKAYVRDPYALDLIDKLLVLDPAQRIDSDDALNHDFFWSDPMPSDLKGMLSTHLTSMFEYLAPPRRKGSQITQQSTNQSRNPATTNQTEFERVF
Chain of Cdk7 (P50613 whole entry): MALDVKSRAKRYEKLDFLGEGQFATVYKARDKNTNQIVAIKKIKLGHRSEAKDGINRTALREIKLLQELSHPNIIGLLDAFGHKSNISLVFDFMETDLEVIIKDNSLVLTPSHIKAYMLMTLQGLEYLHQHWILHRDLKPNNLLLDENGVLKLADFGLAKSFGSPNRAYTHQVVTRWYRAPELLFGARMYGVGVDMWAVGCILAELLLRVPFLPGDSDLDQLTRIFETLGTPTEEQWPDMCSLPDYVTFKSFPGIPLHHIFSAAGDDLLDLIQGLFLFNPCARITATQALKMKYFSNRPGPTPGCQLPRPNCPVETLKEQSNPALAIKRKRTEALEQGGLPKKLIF
Chain of Cdk5 (Q00535 whole entry): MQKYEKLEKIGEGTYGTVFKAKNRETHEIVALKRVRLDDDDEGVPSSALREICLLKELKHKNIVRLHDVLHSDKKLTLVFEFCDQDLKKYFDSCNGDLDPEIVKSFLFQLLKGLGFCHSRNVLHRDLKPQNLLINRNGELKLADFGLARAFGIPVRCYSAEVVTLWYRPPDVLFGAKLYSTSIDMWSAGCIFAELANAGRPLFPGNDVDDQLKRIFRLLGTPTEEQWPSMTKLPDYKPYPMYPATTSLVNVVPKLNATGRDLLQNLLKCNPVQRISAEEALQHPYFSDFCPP
Chain of Cdk11 (Q9BWU1 whole entry): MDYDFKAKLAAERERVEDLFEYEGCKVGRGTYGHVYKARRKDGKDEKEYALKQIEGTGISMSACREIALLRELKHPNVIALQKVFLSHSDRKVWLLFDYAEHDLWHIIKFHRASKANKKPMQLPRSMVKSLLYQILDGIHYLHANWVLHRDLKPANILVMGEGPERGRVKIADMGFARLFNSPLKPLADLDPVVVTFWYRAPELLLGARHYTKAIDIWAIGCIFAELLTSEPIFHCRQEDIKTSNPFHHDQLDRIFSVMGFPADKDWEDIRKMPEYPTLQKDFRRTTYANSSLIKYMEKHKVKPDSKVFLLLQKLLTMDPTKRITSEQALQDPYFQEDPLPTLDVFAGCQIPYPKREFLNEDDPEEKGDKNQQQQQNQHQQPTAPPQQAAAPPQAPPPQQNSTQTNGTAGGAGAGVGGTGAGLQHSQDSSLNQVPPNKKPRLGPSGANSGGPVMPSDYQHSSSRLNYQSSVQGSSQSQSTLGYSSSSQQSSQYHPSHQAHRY
Chain of Cdk8 (P49336 whole entry): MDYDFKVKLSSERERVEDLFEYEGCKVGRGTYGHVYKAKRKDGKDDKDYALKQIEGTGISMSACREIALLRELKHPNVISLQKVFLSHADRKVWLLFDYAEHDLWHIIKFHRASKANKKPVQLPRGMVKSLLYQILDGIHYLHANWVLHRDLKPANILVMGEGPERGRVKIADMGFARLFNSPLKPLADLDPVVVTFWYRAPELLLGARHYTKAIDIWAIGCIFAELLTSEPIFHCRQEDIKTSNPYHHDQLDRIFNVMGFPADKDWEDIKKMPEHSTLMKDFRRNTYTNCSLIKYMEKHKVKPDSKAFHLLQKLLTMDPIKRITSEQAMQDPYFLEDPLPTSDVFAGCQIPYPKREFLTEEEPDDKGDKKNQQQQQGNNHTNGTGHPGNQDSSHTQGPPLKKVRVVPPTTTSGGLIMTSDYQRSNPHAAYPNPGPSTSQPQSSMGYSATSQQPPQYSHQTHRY

Structure (SMILES): O=c1cc(-c2ccc(O)c(O)c2)oc2cc(O)cc(O)c12 [luteolin]
PXR activation, times more effective than 2 μM rifampicin ([1]; compound at 40 μM, versus 2 μM rifampicin): 7 times
PXR activation as % of the activity from 2 μM of rifampicin [1]: more than 50%
Activation of PXR-mediated CYP3A4 promoter (result in words) [1]: potent activators

Structure (SMILES): O=c1cc(-c2ccc(O)cc2)oc2cc(O)cc(O)c12 [apigenin]
PXR activation as % of the activity from 2 μM of rifampicin [1]: more than 50%
Activation of PXR-mediated CYP3A4 promoter (result in words) [1]: potent activators
Kd (Cdk11): 3 µM
Kd (Cdk2): 9.8 µM
Kd (Cdk3): > 30 µM
Kd (Cdk4): 7 µM
Kd (Cdk5): 3.9 µM
Kd (Cdk7): 1.7 µM
Kd (Cdk8): 5.8 µM
Kd (Cdk9): 2 µM

Structure (SMILES): COc1cc(O)c2c(=O)c(-c3ccc(O)cc3)coc2c1 [prunetin]
Activation of PXR-mediated CYP3A4 promoter (result in words) [1]: potent activators

Structure (SMILES): O=c1c(-c2ccc(O)cc2)coc2cc(O)cc(O)c12 [genistein]
Activation of PXR-mediated CYP3A4 promoter (result in words) [1]: potent activators

Other lines, results leading:

Concentration as potent as 2 μM of rifampicin in inducing PXR activity ([1]; HepG2 PXR/CYP3A4-luc): 4.4 µM
Effect on inhibitory effect of Cdk5 on CYP3A4 promoter activity (result in words) [2]: decreased the inhibitory effect of Cdk5
Structure (SMILES): CCCC[C@@H](C=O)NC(=O)[C@H](CC(C)C)NC(=O)OCc1ccccc1 [calpeptin, reference compound]

Activation of PXR-mediated CYP3A4 promoter (result in words) [1]: potent activators
Structure (SMILES): COc1ccc(-c2coc3cc(O)cc(O)c3c2=O)cc1 [biochanin A]

Activation of PXR-mediated CYP3A4 promoter (result in words) [1]: potent activators
Structure (SMILES): O=c1c(-c2ccc(O)cc2)coc2cc(O)ccc12 [daidzein]

Activation of PXR-mediated CYP3A4 promoter (result in words) [1]: potent activators
Binding to PXR (result in words) [3]: did not bind
Structure (SMILES): O=c1cc(-c2ccccc2)oc2cc(O)cc(O)c12 [chrysin]
